Data reported in ChEMBL document CHEMBL4130359, “Indazole-based ligands for estrogen-related receptor α as potential anti-diabetic agents” (Eur J Med Chem, 2017).

Experiments:
Rattus norvegicus [1] = assay: Toxicity in Zucker rat sub-chronic fa/fa prediabetic model assessed as body weight at 10 mg/kg, po qd for 29 days measured on day 29 post last dose (reference value: 533 +/- 10 g); format: organism-based; details: in vivo, 696 h
Rattus norvegicus [2] = assay: Toxicity in Zucker rat sub-chronic fa/fa prediabetic model assessed as change in body weight at 10 mg/kg, po qd for 29 days measured on day 1 to 29 during compound dosing (reference value: 140 +/- 7 g); format: organism-based; details: in vivo, 696 h
Rattus norvegicus [3] = assay: Toxicity in Zucker rat sub-chronic fa/fa prediabetic model assessed as food intake at 10 mg/kg, po qd for 29 days measured on day 1 to 29 during compound dosing (reference value: 969 +/- 18 g); format: organism-based; details: in vivo, 696 h
Rattus norvegicus [4] = assay: Toxicity in Zucker rat sub-chronic fa/fa prediabetic model assessed as epididymal white adipose tissue weight at 10 mg/kg, po qd for 31 days measured on day 32 (reference value: 13.9 +/- 0.6 g); format: organism-based; details: in vivo, 744 h
Rattus norvegicus [5] = assay: Toxicity in Zucker rat sub-chronic fa/fa prediabetic model assessed as brown adipose tissue weight at 10 mg/kg, po qd for 31 days measured on day 32 (reference value: 2.1 +/- 0.3 g); format: organism-based; details: in vivo, 744 h
Rattus norvegicus [6] = assay: Toxicity in Zucker rat sub-chronic fa/fa prediabetic model assessed as liver weight at 10 mg/kg, po qd for 31 days measured on day 32 (reference value: 28 +/- 1.6 g); format: organism-based; details: in vivo, 744 h
Rattus norvegicus [7] = assay: Toxicity in Zucker rat sub-chronic fa/fa prediabetic model assessed as heart weight at 10 mg/kg, po qd for 31 days measured on day 32 (reference value: 1.19 +/- 0.04 g); format: organism-based; details: in vivo, 744 h
Rattus norvegicus [8] = assay: Toxicity in Zucker rat sub-chronic fa/fa prediabetic model assessed as triglyceride level per gram liver at 10 mg/kg, po qd for 31 days measured on day 32 (reference value: 163.4 +/- 8.3 mg); format: organism-based; details: in vivo, 744 h
Rattus norvegicus [9] = assay: Toxicity in Zucker rat sub-chronic fa/fa prediabetic model assessed as insulin level per gram pancreas at 10 mg/kg, po qd for 31 days measured on day 32 (reference value: 55.2 +/- 5.5 ug); format: organism-based; details: in vivo, 744 h
Rattus norvegicus [10] = assay: Toxicity in Zucker rat sub-chronic fa/fa prediabetic model assessed as serum triglyceride level at 10 mg/kg, po qd for 31 days measured on day 32 (reference value: 1382 +/- 268 mg/dl); format: organism-based; details: in vivo, 744 h
Rattus norvegicus [11] = assay: Toxicity in Zucker rat sub-chronic fa/fa prediabetic model assessed as serum cholesterol level at 10 mg/kg, po qd for 31 days measured on day 32 (reference value: 295 +/- 91 mg/dl); format: organism-based; details: in vivo, 744 h
Rattus norvegicus [12] = assay: Toxicity in Zucker rat sub-chronic fa/fa prediabetic model assessed as serum ALT level at 10 mg/kg, po qd for 31 days measured on day 32 (reference value: 151 +/- 23 U/L); format: organism-based; details: in vivo, 744 h
Rattus norvegicus [13] = assay: Toxicity in Zucker rat sub-chronic fa/fa prediabetic model assessed as serum AST level at 10 mg/kg, po qd for 31 days measured on day 32 (reference value: 187 +/- 37 U/L); format: organism-based; details: in vivo, 744 h
Rattus norvegicus [14] = assay: Toxicity in Zucker rat sub-chronic fa/fa prediabetic model assessed as serum BUN level at 10 mg/kg, po qd for 31 days measured on day 32 (reference value: 28.3 +/- […]); format: organism-based; details: in vivo, 744 h
Rattus norvegicus [15] = assay: Toxicity in Zucker rat sub-chronic fa/fa prediabetic model assessed as serum creatinine level at 10 mg/kg, po qd for 31 days measured on day 32 (reference value: 0.71 +/- 0.07 mg/dl); format: organism-based; details: in vivo, 744 h
Rattus norvegicus [16] = assay: Toxicity in […] chronic ob/ob model assessed as body weight at 10 mg/kg, po qd for 28 days measured on day 28 post last dose (reference value: 47.3 +/- 1.06 g); format: organism-based; details: in vivo, 672 h
Rattus norvegicus [17] = assay: Toxicity in […] chronic ob/ob model assessed as change in body weight at 10 mg/kg, po qd for 28 days measured on day 1 to 28 during compound dosing (reference value: 9.9 +/- 1.27 g); format: organism-based; details: in vivo, 672 h
Rattus norvegicus [18] = assay: Toxicity in […] chronic ob/ob model assessed as food intake at 10 mg/kg, po qd for 28 days measured on day 1 to 28 during compound dosing (reference value: 170.6 +/- 3 g); format: organism-based; details: in vivo, 672 h
Rattus norvegicus [19] = assay: Toxicity in […] model assessed as liver weight at 10 mg/kg, po qd for 31 days measured on day 32 (reference value: 2.77 +/- 0.16 g); format: organism-based; details: in vivo, 744 h
Rattus norvegicus [20] = assay: Toxicity in […] chronic ob/ob model assessed as epididymal white adipose tissue weight at 10 mg/kg, po qd for 31 days measured on day 32 (reference value: 3.92 +/- 0.14 g); format: organism-based; details: in vivo, 744 h
Rattus norvegicus [21] = assay: Toxicity in […] chronic ob/ob model assessed as brown adipose tissue weight at 10 mg/kg, po qd for 31 days measured on day 32 (reference value: 0.59 +/- 0.05 g); format: organism-based; details: in vivo, 744 h
Rattus norvegicus [22] = assay: Toxicity in […] chronic ob/ob model assessed as serum triglyceride level at 10 mg/kg, po qd for 31 days measured on day 32 (reference value: 329 +/- 36 mg/dl); format: organism-based; details: in vivo, 744 h
Rattus norvegicus [23] = assay: Toxicity in […] model assessed as serum cholesterol level at 10 mg/kg, po qd for 31 days measured on day 32 (reference value: 195 +/- 5.5 mg/dl); format: organism-based; details: in vivo, 744 h
Rattus norvegicus [24] = assay: Toxicity in […] model assessed as serum ALT level at 10 mg/kg, po qd for 31 days measured on day 32 (reference value: 127 +/- 9 U/L); format: organism-based; details: in vivo, 744 h
Rattus norvegicus [25] = assay: Toxicity in […] model assessed as serum AST level at 10 mg/kg, po qd for 31 days measured on day 32 (reference value: 180 +/- 26 U/L); format: organism-based; details: in vivo, 744 h
Rattus norvegicus [26] = assay: Toxicity in […] model assessed as serum BUN level at 10 mg/kg, po qd for 31 days measured on day 32 (reference value: 28.3 +/- […]); format: organism-based; details: in vivo, 744 h
Rattus norvegicus [27] = assay: Toxicity in […] model assessed as serum creatinine level at 10 mg/kg, po qd for 31 days measured on day 32 (reference value: 0.55 +/- 0.018 mg/dl); format: organism-based; details: in vivo, 744 h
Rattus norvegicus [28] = assay: Antidiabetic activity in […] chronic ob/ob model assessed as increase in plasma adiponectin level at 10 mg/kg, po qd for 31 days measured on day 32 by ELISA relative to control; format: functional

Structure (SMILES): CN(CCOc1ccc(CC2SC(=O)NC2=O)cc1)c1ccccn1 (stereo not drawn) [ROSIGLITAZONE]
- Activity (Rattus norvegicus [1]): 617 g
- Activity (Rattus norvegicus [2]): 213 g
- Activity (Rattus norvegicus [3]): 1248 g
- Activity (Rattus norvegicus [4]): 22.7 g
- Activity (Rattus norvegicus [5]): 7.6 g
- Activity (Rattus norvegicus [6]): 20.9 g
- Activity (Rattus norvegicus [7]): 1.37 g
- Activity (Rattus norvegicus [8]): 102.5 mg
- Activity (Rattus norvegicus [9]): 90.7 µg
- Activity (Rattus norvegicus [10]): 195 mg/dL
- Activity (Rattus norvegicus [11]): 141 mg/dL
- Activity (Rattus norvegicus [12]): 136 U/L
- Activity (Rattus norvegicus [13]): 147 U/L
- Activity (Rattus norvegicus [14]): 27.2 mg/dL
- Activity (Rattus norvegicus [15]): 0.54 mg/dL
- Activity (Rattus norvegicus [16]): 50.5 g
- Activity (Rattus norvegicus [17]): 13 g
- Activity (Rattus norvegicus [18]): 157.3 g
- Activity (Rattus norvegicus [19]): 3.93 g
- Activity (Rattus norvegicus [20]): 3.32 g
- Activity (Rattus norvegicus [21]): 1.26 g
- Activity (Rattus norvegicus [22]): 77 mg/dL
- Activity (Rattus norvegicus [23]): 184 mg/dL
- Activity (Rattus norvegicus [24]): 366 U/L
- Activity (Rattus norvegicus [25]): 364 U/L
- Activity (Rattus norvegicus [26]): 33.1 mg/dL
- Activity (Rattus norvegicus [27]): 0.41 mg/dL
- fold change (FC) (Rattus norvegicus [28]): 2.6
